Test results from the NIST ThermoML archive (doi:10.1016/j.jct.2010.12.025).
± gives the expanded uncertainty stated by the source.

conditions: 298.15 K; 101.33 kPa; Liquid; Vibrating tube method

| molar volume | Structure (SMILES) |
| --- | --- |
| 0.0001192 ± 1.3e-07 m3/mol | CCC(C)(C)N [1,1-dimethylpropylamine] |
| 8.672e-05 ± 1e-07 m3/mol | CC(C)N [2-propanamine] |
| 0.0001065 ± 1e-07 m3/mol | CC(C)(C)N [2-methyl-2-propanamine] |
| 0.0001829 ± 1.8e-07 m3/mol | CCCCCCCCCN [1-aminononane] |
| 0.0001163 ± 1.1e-07 m3/mol | CCCCCN [1-pentanamine] |
| 0.0002655 ± 1e-07 m3/mol | CCCCCCCCCCCCCCN [1-tetradecanamine] |
| 0.0002323 ± 2e-07 m3/mol | CCCCCCCCCCCCN [1-dodecanamine] |

More lines, now with the values behind:

| Structure (SMILES) | molar volume |
| --- | --- |
| CCCN [propan-1-amine] | 8.315e-05 ± 1e-07 m3/mol |
| CCCCCCCCCCN [1-decanamine] | 0.000199 ± 2e-07 m3/mol |
| CCC(C)N (stereo not drawn) [2-butanamine] | 0.0001019 ± 1.1e-07 m3/mol |
| CCCCN [1-butanamine] | 9.987e-05 ± 1e-07 m3/mol |
| CCCCCCCCN [1-octanamine] | 0.0001662 ± 1.1e-07 m3/mol |
| CCCCCCN [1-hexanamine] | 0.0001331 ± 1.1e-07 m3/mol |
| CC(C)CCN [3-methyl-1-butanamine] | 0.000117 ± 1.1e-07 m3/mol |
| CCCCCCCN [1-heptanamine] | 0.0001496 ± 1.1e-07 m3/mol |
| CCCCCCC [heptane] | 0.0001475 ± 1.1e-07 m3/mol |
| CC(C)CN [2-methyl-1-propanamine] | 0.000101 ± 1e-07 m3/mol |
| CCC(N)CC [1-ethylpropylamine] | 0.0001172 ± 2.4e-07 m3/mol |
